*1 amine or outer side, *2 acyl side, *3 side chain or, on linkers, in order; H or OH if unused. Where a SMILES comes first, the peptide text is derived from it. Bridges are numbered along the chain shown (N, C = ends). [ ]: non-standard residue; d: D form. The star is where a group is joined. hTyr(3S-OH,4S-OH,3'-OSO3H) = N[C@H](C(=O)O)[C@H](O)[C@@H](O)c1ccc(O)c(OS(=O)(=O)O)c1; Orn(4R-OH,5R-OH) = O=C([C@H](C[C@@H](O)[C@@H](O)N[*:3])N[*:1])[*:2]; Pro(3S-OH,4S-Me) = C[C@H]1CN[C@H](C(=O)O)[C@H]1O; X1 = CCCCCOc1ccc(-c2cc(-c3ccc(C(=O)*)cc3)no2)cc1; Gln(3R-OH) = NC(=O)C[C@@H](O)[C@H](N)C(=O)O; Hyp = O=C(O)[C@@H]1C[C@@H](O)CN1
Key:
Thromboxane A2 receptor = biological target: T1, Thromboxane A2 receptor (Homo sapiens, UniProt P21731)
T1 sequence (P21731 whole entry): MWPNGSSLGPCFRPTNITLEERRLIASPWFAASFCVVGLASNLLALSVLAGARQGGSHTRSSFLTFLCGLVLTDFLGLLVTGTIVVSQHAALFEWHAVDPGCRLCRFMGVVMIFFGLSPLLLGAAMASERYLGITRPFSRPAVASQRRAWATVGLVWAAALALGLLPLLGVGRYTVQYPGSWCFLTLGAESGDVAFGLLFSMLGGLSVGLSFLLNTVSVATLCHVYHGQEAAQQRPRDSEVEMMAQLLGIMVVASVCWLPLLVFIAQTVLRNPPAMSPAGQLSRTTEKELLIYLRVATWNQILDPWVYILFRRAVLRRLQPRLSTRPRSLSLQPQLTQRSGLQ

Progesterone receptor = biological target: T2, Progesterone receptor (Homo sapiens, UniProt P06401); format: functional
T2 sequence (P06401 whole entry): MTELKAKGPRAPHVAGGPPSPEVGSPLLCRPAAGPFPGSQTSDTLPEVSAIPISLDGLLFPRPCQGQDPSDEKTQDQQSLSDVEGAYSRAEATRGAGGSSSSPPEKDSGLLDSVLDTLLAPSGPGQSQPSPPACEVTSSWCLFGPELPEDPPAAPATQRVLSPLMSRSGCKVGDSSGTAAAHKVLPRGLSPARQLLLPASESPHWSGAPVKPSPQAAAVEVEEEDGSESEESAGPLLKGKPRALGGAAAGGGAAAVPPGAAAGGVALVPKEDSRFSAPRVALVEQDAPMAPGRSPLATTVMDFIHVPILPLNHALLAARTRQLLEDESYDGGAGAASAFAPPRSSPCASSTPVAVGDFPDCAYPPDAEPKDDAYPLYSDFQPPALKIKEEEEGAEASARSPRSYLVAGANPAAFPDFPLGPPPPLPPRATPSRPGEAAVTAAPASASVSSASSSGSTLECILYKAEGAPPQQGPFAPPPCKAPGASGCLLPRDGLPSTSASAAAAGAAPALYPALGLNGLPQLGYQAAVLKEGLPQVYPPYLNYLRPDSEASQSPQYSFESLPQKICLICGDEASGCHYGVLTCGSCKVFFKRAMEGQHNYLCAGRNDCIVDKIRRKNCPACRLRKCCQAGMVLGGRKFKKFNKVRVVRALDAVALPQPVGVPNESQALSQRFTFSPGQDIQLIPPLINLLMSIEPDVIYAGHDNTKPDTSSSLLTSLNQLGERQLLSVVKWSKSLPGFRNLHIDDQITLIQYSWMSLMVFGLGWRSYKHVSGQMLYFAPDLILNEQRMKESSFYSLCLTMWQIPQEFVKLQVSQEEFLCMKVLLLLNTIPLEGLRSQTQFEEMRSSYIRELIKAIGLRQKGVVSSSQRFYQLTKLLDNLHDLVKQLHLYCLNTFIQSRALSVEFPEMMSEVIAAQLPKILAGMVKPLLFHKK

[1] = biological target: Vascular endothelial growth factor receptor 2 (Homo sapiens, UniProt P35968); format: functional
[2] = biological target: T3, Equilibrative nucleoside transporter 1 (Homo sapiens, UniProt Q99808)
T3 sequence (Q99808 whole entry): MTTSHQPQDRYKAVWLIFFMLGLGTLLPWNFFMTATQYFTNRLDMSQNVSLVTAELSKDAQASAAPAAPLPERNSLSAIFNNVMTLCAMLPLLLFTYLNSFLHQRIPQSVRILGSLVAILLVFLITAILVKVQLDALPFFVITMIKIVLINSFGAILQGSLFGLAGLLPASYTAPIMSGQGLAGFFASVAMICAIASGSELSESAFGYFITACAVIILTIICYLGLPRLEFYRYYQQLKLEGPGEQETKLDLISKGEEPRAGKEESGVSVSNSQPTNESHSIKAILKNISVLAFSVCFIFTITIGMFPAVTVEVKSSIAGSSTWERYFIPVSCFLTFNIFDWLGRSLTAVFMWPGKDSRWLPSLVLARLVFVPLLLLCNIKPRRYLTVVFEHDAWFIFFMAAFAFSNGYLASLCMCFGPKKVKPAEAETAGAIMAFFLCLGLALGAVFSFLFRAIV

[3] = biological target: T4, Muscarinic acetylcholine receptor M1 (Homo sapiens, UniProt P11229); format: functional, cell-based
T4 sequence (P11229 whole entry): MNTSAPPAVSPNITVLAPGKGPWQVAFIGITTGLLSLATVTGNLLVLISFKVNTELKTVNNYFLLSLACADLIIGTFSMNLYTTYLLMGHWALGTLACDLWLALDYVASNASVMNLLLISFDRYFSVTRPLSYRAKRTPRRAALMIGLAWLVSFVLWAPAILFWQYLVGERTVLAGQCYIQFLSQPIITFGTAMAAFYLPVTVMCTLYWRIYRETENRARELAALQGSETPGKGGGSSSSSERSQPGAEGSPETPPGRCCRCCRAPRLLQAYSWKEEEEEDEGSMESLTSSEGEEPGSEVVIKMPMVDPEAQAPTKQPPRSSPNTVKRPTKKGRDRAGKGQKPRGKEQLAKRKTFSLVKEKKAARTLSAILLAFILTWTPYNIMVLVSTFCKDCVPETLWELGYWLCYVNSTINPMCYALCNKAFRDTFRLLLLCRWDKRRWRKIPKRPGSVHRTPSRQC

[4] = biological target: Delta-type opioid receptor (Homo sapiens, UniProt P41143)
[5] = biological target: Sodium-dependent noradrenaline transporter (Homo sapiens, UniProt P23975)
[6] = biological target: T5, Alpha-1A adrenergic receptor (Homo sapiens, UniProt P35348); format: functional, cell-based
T5 sequence (P35348 whole entry): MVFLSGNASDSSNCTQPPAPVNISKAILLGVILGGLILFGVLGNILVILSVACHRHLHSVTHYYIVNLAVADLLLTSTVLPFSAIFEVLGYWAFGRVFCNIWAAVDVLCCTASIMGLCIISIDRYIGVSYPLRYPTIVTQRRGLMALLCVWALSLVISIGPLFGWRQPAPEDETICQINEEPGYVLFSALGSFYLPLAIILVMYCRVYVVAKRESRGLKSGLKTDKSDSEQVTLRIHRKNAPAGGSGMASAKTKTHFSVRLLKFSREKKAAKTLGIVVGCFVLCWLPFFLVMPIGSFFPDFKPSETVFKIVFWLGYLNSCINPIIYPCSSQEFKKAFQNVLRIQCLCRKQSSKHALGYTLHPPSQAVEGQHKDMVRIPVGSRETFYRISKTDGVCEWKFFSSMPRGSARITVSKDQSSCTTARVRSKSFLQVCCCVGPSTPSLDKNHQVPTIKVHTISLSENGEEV
Further: assay procedure not described here.

Sequence of Vascular endothelial growth factor receptor 2 (P35968 whole entry): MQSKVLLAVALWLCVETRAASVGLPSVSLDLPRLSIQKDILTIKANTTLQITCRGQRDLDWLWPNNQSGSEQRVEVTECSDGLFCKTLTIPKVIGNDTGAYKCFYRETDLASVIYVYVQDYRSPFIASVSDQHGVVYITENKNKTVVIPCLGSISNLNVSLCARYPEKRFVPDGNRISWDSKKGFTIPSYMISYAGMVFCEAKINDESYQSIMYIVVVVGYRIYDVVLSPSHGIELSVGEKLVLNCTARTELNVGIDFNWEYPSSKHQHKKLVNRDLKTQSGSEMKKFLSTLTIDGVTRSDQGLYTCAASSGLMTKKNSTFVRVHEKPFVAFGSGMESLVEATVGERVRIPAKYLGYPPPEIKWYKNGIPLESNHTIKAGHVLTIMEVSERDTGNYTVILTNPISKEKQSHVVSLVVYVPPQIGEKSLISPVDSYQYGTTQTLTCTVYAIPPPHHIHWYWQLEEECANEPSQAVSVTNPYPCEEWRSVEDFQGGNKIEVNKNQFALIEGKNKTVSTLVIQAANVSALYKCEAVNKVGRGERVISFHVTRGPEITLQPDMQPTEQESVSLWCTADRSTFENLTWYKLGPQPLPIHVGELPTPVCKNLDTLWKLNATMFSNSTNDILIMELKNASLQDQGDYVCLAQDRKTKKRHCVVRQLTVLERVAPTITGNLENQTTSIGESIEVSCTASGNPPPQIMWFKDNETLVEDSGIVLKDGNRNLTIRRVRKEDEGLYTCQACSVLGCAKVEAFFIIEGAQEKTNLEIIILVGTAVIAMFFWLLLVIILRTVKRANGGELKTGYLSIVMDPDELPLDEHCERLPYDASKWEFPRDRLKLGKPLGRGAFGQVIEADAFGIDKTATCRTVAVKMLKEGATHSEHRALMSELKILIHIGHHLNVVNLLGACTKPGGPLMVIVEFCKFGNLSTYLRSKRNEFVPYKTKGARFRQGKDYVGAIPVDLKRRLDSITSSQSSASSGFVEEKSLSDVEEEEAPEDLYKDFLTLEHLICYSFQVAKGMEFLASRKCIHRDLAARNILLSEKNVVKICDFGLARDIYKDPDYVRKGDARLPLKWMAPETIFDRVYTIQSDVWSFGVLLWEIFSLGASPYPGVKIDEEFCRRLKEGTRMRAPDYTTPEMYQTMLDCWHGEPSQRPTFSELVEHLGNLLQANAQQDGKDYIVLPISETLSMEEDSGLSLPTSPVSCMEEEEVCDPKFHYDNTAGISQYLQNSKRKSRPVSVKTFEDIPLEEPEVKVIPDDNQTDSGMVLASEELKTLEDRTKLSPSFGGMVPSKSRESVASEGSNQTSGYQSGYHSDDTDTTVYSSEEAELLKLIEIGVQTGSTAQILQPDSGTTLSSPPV
Sequence of Sodium-dependent noradrenaline transporter (P23975 whole entry): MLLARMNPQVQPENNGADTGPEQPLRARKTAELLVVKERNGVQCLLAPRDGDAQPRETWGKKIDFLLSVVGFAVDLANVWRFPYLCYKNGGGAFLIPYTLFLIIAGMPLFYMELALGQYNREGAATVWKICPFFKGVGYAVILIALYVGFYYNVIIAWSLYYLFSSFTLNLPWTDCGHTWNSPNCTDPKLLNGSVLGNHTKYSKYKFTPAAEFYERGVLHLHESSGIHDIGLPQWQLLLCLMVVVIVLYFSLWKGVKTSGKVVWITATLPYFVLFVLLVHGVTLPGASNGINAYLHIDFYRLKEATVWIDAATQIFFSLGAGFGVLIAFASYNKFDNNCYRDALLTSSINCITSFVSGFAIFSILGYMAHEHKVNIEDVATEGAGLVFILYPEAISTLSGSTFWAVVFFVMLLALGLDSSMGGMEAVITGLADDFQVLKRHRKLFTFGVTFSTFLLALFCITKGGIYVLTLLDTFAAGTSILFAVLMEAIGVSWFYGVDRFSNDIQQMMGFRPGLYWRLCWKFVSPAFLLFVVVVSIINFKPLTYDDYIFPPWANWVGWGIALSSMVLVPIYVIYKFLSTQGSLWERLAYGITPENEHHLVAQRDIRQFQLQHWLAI
Sequence of Delta-type opioid receptor (P41143 whole entry): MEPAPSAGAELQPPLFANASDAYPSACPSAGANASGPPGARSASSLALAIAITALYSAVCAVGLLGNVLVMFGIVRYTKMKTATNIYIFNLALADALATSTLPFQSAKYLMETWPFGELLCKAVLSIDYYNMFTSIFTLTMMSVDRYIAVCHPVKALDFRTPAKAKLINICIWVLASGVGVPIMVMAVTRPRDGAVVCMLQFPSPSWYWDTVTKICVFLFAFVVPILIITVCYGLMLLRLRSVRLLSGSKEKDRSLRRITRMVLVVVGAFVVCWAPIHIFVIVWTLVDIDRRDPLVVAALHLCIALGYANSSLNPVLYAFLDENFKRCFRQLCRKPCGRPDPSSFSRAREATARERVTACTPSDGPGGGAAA

SMILES | AC50 (Thromboxane A2 receptor) | AC50 (Progesterone receptor) | AC50 [1] | AC50 [2] | AC50 [3] | AC50 [4] | AC50 [5] | AC50 [6]
CC(=O)/N=c1/sc(S(N)(=O)=O)nn1C [METHAZOLAMIDE] | > 10 µM | > 10 µM | > 30 µM | > 10 µM | > 30 µM | > 30 µM | > 10 µM | > 30 µM
CCCCCOc1ccc(-c2cc(-c3ccc(C(=O)N[C@H]4C[C@@H](O)[C@@H](O)NC(=O)[C@@H]5[C@@H](O)[C@@H](C)CN5C(=O)[C@H]([C@H](O)CC(N)=O)NC(=O)[C@H]([C@H](O)[C@@H](O)c5ccc(O)c(OS(=O)(=O)O)c5)NC(=O)[C@@H]5C[C@@H](O)CN5C(=O)[C@H]([C@@H](C)O)NC4=O)cc3)no2)cc1 [MICAFUNGIN] (X1-[Orn(4R-OH,5R-OH)]T[Hyp][hTyr(3S-OH,4S-OH,3'-OSO3H)][Gln(3R-OH)][Pro(3S-OH,4S-Me)]; lactam 1-C) | – | – | > 30 µM | – | 9.05 µM | – | – | > 30 µM
CCOc1ccc2ccccc2c1C(=O)N[C@@H]1C(=O)N2[C@@H]1SC(C)(C)[C@@H]2C(=O)O [NAFCILLIN] | – | – | > 30 µM | – | > 30 µM | – | – | > 30 µM
C#C[C@]1(O)CC[C@H]2[C@@H]3CCC4=C(CCC(=O)C4)[C@H]3CC[C@@]21C [NORETHYNODREL] | – | – | > 30 µM | – | […] | – | – | 17.4 µM
CCCCCCCCCCC[C@@H](C[C@@H]1OC(=O)[C@H]1CCCCCC)OC(=O)[C@H](CC(C)C)NC=O [ORLISTAT] | – | – | > 30 µM | – | > 30 µM | – | – | > 30 µM
O=C1[C@H]2CCCC[C@H]2C(=O)N1CCCCN1CCN(c2nsc3ccccc23)CC1 [PEROSPIRONE] | – | – | > 30 µM | – | 10.3 µM | – | – | 0.003 µM
CN(C)CCC(c1ccccc1)c1ccccn1 (centres undefined) [PHENIRAMINE] | – | – | > 30 µM | – | > 30 µM | – | – | > 30 µM
CC(C)(C)C(=O)NCCCC(=O)O [PIVAGABINE] | – | – | > 30 µM | – | > 30 µM | – | – | > 30 µM
CC(C)[N+](C)(CCOC(=O)C1c2ccccc2Oc2ccccc21)C(C)C [PROPANTHELINE] | – | – | > 30 µM | – | 0.003 µM | – | – | > 30 µM
CN(C)C(=O)c1nc(CNC(=O)CN)n(-c2ccc(Cl)cc2C(=O)c2ccccc2Cl)n1 [RILMAZAFONE] | – | – | > 30 µM | – | > 30 µM | – | – | > 30 µM
NC(=O)NS(=O)(=O)c1ccc(N)cc1 [SULFACARBAMIDE] | – | – | > 30 µM | – | > 30 µM | – | – | > 30 µM
NCCc1ccc(O)cc1 [TYRAMINE] | – | – | > 30 µM | – | > 30 µM | – | – | > 30 µM
CCCCCCCCCCCCCCCC(=O)OC/C=C(C)/C=C/C=C(C)/C=C/C1=C(C)CCCC1(C)C [VITAMIN A PALMITATE] | – | – | > 30 µM | – | > 30 µM | – | – | > 30 µM

From ChEMBL document CHEMBL5291721, “A preclinical secondary pharmacology resource illuminates target-adverse drug reaction associations of marketed drugs” (Nat Commun, 2023)
